# Reference: patent publication US20210087195A1, “NEW CRYSTAL FORM OF ACALBRUTINIB, PREPARATION METHOD THEREFOR AND USE THEREOF” (Crystal Pharmaceutical (Suzhou) Co., Ltd., priority 2018, published 2021)
# “Also recorded” adds a separate entry of the source. Where two headings read alike, the source gives them in different places.
# Key:
# Format in all cases: physicochemical
# [1] = Compressibility (tensile strength of compressed powder); conditions: φ6 mm round tooling, compressed at 10 kN, T=2H/πDL
# Procedure: Approximately 80 mg of Form K1 or Form I of WO2017002095A1 was added into the dies of φ6 mm round tooling, compressed at 10 kN manually, and then stored in a desiccator for 24 hours until complete elastic recovery. Radial crushing force (hardness, H) was tested with an intelligent tablet hardness tester. Diameter (D) and thickness (L) were tested with a caliper. Tensile strength of the powder with different hardness was calculated with the following formula: T=2H/πDL. Under a certain force, the greater the tensile strength, the better the compressibility.
# [2] = Solubility in organic solvents (incremental solvent addition)
# Procedure: A certain amount of Form K1 or Form I of WO2017002095A1 was added into a glass vial. Organic solvent was added into the glass vial in increments of 100 μL. Solid was quickly dispersed in solvent through oscillation or sonication, and the process was monitored to see whether the solid was completely dissolved. No more solvent was added when solids were completely dissolved, or a total volume of solvent reached 1.5 mL. According to mass of sample (m) and volume of solvent added, solubility (S) of different crystalline forms in organic solvent was calculated.
# [3] = Adhesiveness (amount sticking to the punch); conditions: φ8 mm round tooling, 10 kN, held 30 s, compression repeated twice
# Procedure: Approximately 30 mg of Form K1 or Form I of WO2017002095A1 was weighed and then added into the dies of φ8 mm round tooling, compressed at 10 kN and held for 30 s. The amount of material sticking to the punch was weighed. The compression was repeated twice and the cumulative amount and average amount of solids sticking to the punch during the compression were recorded.
# [4] = Slurry competition experiments between Form K1 and Form I in water; conditions: 5° C. and room temperature
# Procedure: Approximately 30 mg of Form K1 and Form I of WO2017002095A1 were weighed and suspended into water at 5° C. and room temperature, to evaluate the stability of Form K1 and Form I of WO2017002095A1.
# [5] = Solubility in buffers of pH 7.0, 7.4 and 8.7 (HPLC); conditions: for solubility at 2 h: phosphate buffer, thermodynamic from solid, read-out: Solubility after equilibration for 2 hours
# Procedure: A sufficient amount of Form K1 or Form I of WO2017002095A1 was suspended in buffers of pH 7.0, 7.4 and 8.7. After being stirred and equilibrated for 2 hours, the suspension was centrifuged to obtain supernatant. Concentration (mg/mL) of the supernatant was analyzed by HPLC.
# [6] = Physical stability of crystalline form in water (suspension, magnetic stirring or shaking, XRPD); conditions: for Physical stability in water (crystalline form change): magnetic stirring and shaking at room temperature and 5° C., up to 7 days
# Procedure: The following experiments were conducted to compare physical stability of Form K1 of the present disclosure and Form I of WO2017002095A1 in water. Approximately 10 mg of Form K1 and Form I solids were added into 1.0 mL of pure water separately to form suspensions. The suspensions were dispersed by magnetic stirring and shaking at room temperature and 5° C. to evaluate the physical stability of Form K1 and Form I of WO2017002095A1 in water.
# [7] = Form change during capsule formulation process (XRPD); conditions: before and after capsule preparation
# Procedure: Form K1 capsules were prepared according to the formulation listed in Table 11 and the preparation process described in Table 12. XRPD was performed to test the form change before and after capsule preparation.
# [8] = Stability of drug substance at long-term and accelerated conditions (XRPD); conditions: for Solid form after storage: one month
# Procedure: Four samples, 10 mg each of Form K1 of the present disclosure was stored in HPLC glass vials. The HPLC glass vials were capped in sealed conditions, or covered with Parafilm with 3-5 pinholes in open conditions. After one month, solid forms were checked by XRPD.
# [9] = Physical stability under manual grinding (XRPD); conditions: ground manually in a mortar for 5 minutes
# Procedure: Form K1 was ground manually in a mortar for 5 minutes.
# [10] = listed as Form I of WO2017002095A1
compound,measurement,setting,value
"CC#CC(=O)N1CCC[C@H]1c1nc(-c2ccc(C(=O)Nc3ccccn3)cc2)c2c(N)nccn12 [Form I, (S)-4-(8-amino-3-(1-(but-2-ynoyl)pyrrolidin-2-yl)imidazo[1,5-a]pyrazin-1-yl)-N-(pyridin-2-yl)benzamide, reference compound]",Tensile strength,[1]; [10],Unable to be compressed into a tablet
same,Solubility,"[2]; 1,4-Dioxane",S < 13.1 mg/mL
same,Solubility,[2]; 2-methyltetrahydrofuran,S < 8.9 mg/mL
same,Solubility,[2]; Acetone,S < 6.5 mg/mL
same,Solubility,[2]; Acetonitrile,S < 7.8 mg/mL
same,Solubility,[2]; Ethanol,S < 6.4 mg/mL
same,Solubility,[2]; Ethyl acetate,S < 7.9 mg/mL
same,Solubility,[2]; Isopropanol,S < 6.5 mg/mL
same,Solubility,[2]; Methanol,S < 27.0 mg/mL
same,Solubility,[2]; Methyl ethyl ketone,S < 7.6 mg/mL
same,Solubility,[2]; Methyl isobutyl ketone,S < 7.7 mg/mL
same,Solubility,[2]; Tetrahydrofuran,S < 16.1 mg/mL
same,Solubility,[2]; n-Butanol,S < 8.7 mg/mL
same,Solubility,[2]; n-Propanol,S < 7.5 mg/mL
same,Average amount sticking to the punch,[3]; [10],45 µg
same,Cumulative amount sticking to the punch,[3]; [10],90 µg
same,Form conversion in slurry competition,[4],convert into Form K1
same,Solubility after equilibration for 2 hours,[5]; pH = 7.0 phosphate aqueous solution,64 µg/mL
same,Solubility after equilibration for 2 hours,[5]; pH = 7.4 phosphate aqueous solution,55 µg/mL
same,Solubility after equilibration for 2 hours,[5]; pH = 8.7 phosphate aqueous solution,56 µg/mL
same,Physical stability in water (crystalline form change),[6],crystallinity decrease and almost converts into amorphous
same,Solid form changes in the suspension,"[6]; water, magnetic stirring, room temperature, 4 hours",crystallinity decrease and almost converts into amorphous
"CC#CC(=O)N1CCC[C@H]1c1nc(-c2ccc(C(=O)Nc3ccccn3)cc2)c2c(N)nccn12 [Form K1, (S)-4-(8-amino-3-(1-(but-2-ynoyl)pyrrolidin-2-yl)imidazo[1,5-a]pyrazin-1-yl)-N-(pyridin-2-yl)benzamide]",Tensile strength,[1],1.31 MPa
same,Solubility,"[2]; 1,4-Dioxane",S > 102.0 mg/mL
same,Solubility,"[2]; 2-methyltetrahydrofuran, organic solvent or mixture, thermodynamic from solid, 2-methyltetrahydrofuran, read-out: Solubility",> 17600 µg/mL
same,Solubility,[2]; Acetone,S > 137.0 mg/mL
same,Solubility,[2]; Acetonitrile,S > 36.3 mg/mL
same,Solubility,[2]; Ethanol,S > 120.0 mg/mL
same,Solubility,[2]; Isopropanol,S > 48.0 mg/mL
same,Solubility,[2]; Methanol,S > 89.0 mg/mL
same,Solubility,[2]; Methyl ethyl ketone,S > 114.0 mg/mL
same,Solubility,[2]; Tetrahydrofuran,S > 142.0 mg/mL
same,Solubility,"[2]; ethyl acetate, organic solvent or mixture, thermodynamic from solid, Ethyl acetate, read-out: Solubility",> 13200 µg/mL
same,Solubility,"[2]; methyl isobutyl ketone, organic solvent or mixture, thermodynamic from solid, Methyl isobutyl ketone, read-out: Solubility",> 10000 µg/mL
same,Solubility,[2]; n-Butanol,S > 30.3 mg/mL
same,Solubility,[2]; n-Propanol,S > 58.0 mg/mL
same,Average amount sticking to the punch,[3],30 µg
same,Cumulative amount sticking to the punch,[3],60 µg
same,Form change during capsule formulation process,[7],doesn't change
same,solubility at 2 h,"[5]; pH 7, aqueous buffer, pH = 7.0 phosphate aqueous solution",79 µg/mL
same,solubility at 2 h,"[5]; pH 7.4, aqueous buffer, pH = 7.4 phosphate aqueous solution",69 µg/mL
same,solubility at 2 h,"[5]; pH 8.7, aqueous buffer, pH = 8.7 phosphate aqueous solution",66 µg/mL
same,Stability of drug substance (time kept stable),"[8]; 25° C./60% RH and 40° C./75% RH, sealed and open",stable for at least one month
same,Solid form after storage,"[8]; 25° C./60% RH, open",Form K1
same,Solid form after storage,"[8]; 25° C./60% RH, sealed",Form K1
same,Solid form after storage,"[8]; 40° C./75% RH, open",Form K1
same,Solid form after storage,"[8]; 40° C./75% RH, sealed",Form K1
same,Physical stability in water (crystalline form change),[6],no crystalline form change; also recorded: doesn't change
same,Physical stability under grinding (form change),[9],no obvious form change or crystallinity decrease
